Laboratory results as given in patent US20220241214A1, “NAN[…] W METHIDES AND COMPOSITIONS FOR USE” (priority 2019, published 2022).
pIC50: −log10 of the molar value. Like-named read-outs stand apart in the source and are kept apart here.

Columns and labels:
[1] = test system: PDX1 tumors; test: Patient-derived xenograft (PDX1) model of endometrial cancer, tumor growth; type: in vivo; details: PDX1 mice, twice a week for 4 weeks; compared to control PLGA nanoparticles (combination: compared to all other groups)
Description: Patient-derived xenograft (PDX) studies: A PDX model of endometrial cancer (PDX1) has been previously described (Luo et al., 2010). NOD.Cg-Prkdcscid Il2rgtm1Wjl/SzJ (NSG, Jackson Laboratories, Bar Harbor, Me.) immunodeficient female mice at 8 weeks of age were injected with passage 3 of PDX1 tumor tissue (10 mg/100 μl medium) into the right flank subcutaneously. The mice were randomly divided into 4 groups, with 5 mice per drug treated group, and 4 mice comprised the empty nanoparticle control group. Treatment was started on day 15 after engraftment of cells. The dose of pristimerin delivered in nanoparticles was 60 μg for each mouse and was administered by intravenous injection (IV) injection twice a week for a total of 4 weeks. The dose of cisplatin was […] for each mouse and was administered by intraperitoneal (IP) injection twice a week for a total of 4 weeks. After 2 weeks of treatment, tumors were measured weekly using calipers, and volumes were calculated using the formula length×width^2/2.
All animal studies were performed under animal protocols #7051085 approved by the University of Iowa Institutional Animal Care and Use Committee (Iowa City, Iowa). MTDH knockout mice were generated as described previously (Meng et al., 2015). […] After 2 weeks of treatment, tumors were measured weekly using calipers, and volumes were calculated using the formula […].

[2] = previous reported; cited from earlier work
[3] = test system: Hec50 cells; test: Cell viability by WST-1 assay in Hec50 cells; type: cell-based; details: pristimerin 72 hours
Description: (§1) Cell viability was determined by WST-1 assay. Cells were seeded into 96-well plates (1×10^4 cells per well) then treated with cisplatin (Fresenius Kabi Oncology Ltd, Haryana, India) or the combination of cisplatin with pristimerin in solution (Cayman Chemical, Ann Arbor, Mich.). Cell viability was evaluated using the cell proliferation reagent WST-1 (Roche, Germany) according to the manufacturer's protocol. The absorbance was measured with a micro-plate reader (BioRad). Data were calculated as percent (%) viability relative to untreated control, which was set at 100%.
as §1, with “Ltd.,” for “Ltd,”, “Absorbance” for “The absorbance”, “microplate” for “micro-plate”

[4] = test system: MDA-MB-231 cells; test: Cell viability by WST-1 assay in MDA-MB-231 cells; type: cell-based; details: Homo sapiens, pristimerin 72 hours
Description: as §1
as §1, with “Ltd.,” for “Ltd,”, “Absorbance” for “The absorbance”, “microplate” for “micro-plate”

[5] = test system: KLE cells; test: Cell viability by WST-1 assay in KLE cells; type: cell-based; details: Homo sapiens, pristimerin 72 hours
Description: as §1
as §1, with “Ltd.,” for “Ltd,”, “Absorbance” for “The absorbance”, “microplate” for “micro-plate”

[6] = molecular target: P-glycoprotein (P-gp) efflux transporter (Homo sapiens, UniProt P08183); details: not told; cited from earlier work
[7] = Solubility and pharmacokinetics (statement); details: pristimerin in solution

Sequence of P-glycoprotein (P-gp) efflux transporter (P08183 whole entry): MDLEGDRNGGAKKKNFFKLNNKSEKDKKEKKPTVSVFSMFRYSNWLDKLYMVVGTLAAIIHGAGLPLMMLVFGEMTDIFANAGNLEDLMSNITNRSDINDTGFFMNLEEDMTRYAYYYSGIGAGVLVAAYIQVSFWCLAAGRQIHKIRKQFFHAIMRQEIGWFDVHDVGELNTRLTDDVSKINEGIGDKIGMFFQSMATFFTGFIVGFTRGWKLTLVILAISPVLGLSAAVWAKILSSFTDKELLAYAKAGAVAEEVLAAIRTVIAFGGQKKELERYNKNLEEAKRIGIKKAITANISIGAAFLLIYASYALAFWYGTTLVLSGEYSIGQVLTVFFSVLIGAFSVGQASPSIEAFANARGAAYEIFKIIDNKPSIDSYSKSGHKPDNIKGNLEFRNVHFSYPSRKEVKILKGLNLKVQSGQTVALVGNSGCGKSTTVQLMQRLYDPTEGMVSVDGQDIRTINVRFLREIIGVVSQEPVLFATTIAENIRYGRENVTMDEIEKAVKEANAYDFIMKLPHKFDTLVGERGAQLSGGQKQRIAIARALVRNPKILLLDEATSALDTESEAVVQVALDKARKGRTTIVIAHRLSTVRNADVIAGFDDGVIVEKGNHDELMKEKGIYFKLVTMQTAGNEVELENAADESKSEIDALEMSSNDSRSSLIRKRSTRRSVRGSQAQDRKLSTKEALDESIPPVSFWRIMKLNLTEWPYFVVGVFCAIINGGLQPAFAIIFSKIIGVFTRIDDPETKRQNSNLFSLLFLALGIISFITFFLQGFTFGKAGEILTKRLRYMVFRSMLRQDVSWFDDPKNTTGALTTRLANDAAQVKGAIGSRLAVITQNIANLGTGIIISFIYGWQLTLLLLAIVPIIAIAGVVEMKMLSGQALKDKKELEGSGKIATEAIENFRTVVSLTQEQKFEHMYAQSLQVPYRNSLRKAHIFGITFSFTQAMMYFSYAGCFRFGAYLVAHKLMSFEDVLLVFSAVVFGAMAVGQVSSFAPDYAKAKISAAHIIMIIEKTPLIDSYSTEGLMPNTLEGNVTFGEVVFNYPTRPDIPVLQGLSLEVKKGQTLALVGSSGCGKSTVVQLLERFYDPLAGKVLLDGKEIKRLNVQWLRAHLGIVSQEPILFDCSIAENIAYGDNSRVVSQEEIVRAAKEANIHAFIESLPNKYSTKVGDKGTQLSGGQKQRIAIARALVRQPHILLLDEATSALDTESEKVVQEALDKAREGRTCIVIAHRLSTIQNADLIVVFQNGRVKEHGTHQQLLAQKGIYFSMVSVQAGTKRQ

**Q.** Which tumor growth [1] does the source give for `N.N.[Cl][Pt][Cl]` [cisplatin] here?
**A.** significantly inhibited

**Q.** With `CC1=C(O)C(=O)C=C2C1=CC=C1[C@@]2(C)CC[C@@]2(C)[C@@H]3C[C@](C)(C(=O)O)CC[C@]3(C)CC[C@]12C` [celastrol] as the compound, how does the solubility and pharmacokinetics [2] read?
**A.** poor

**Q.** With `COC(=O)[C@]1(C)CC[C@]2(C)CC[C@]3(C)C4=CC=C5C(=CC(=O)C(O)=C5C)[C@]4(C)CC[C@@]3(C)[C@@H]2C1` [pristimerin, Pristimerin] as the compound, how does the pIC50 [3] read?
**A.** > 6.00

**Q.** And the pIC50 [4]?
**A.** > 6.00

**Q.** And the pIC50 [5]?
**A.** > 6.00

**Q.** And the “substrate to P-gp” value [6]?
**A.** substrate

**Q.** And the solubility and pharmacokinetics [7]?
**A.** poor
